Structures are written as SMILES. Where only a bound is given, the exact number is not on record here.

Results on 19 compounds are retold here after patent US20260034123A1 (Cedilla Therapeutics, Inc., priority 2022, published 2026).

For experiment [1], the target named is CDK2/Cyclin E1 (Homo sapiens, UniProt P24941). The experiment can be described thus: ADP-Glo Luminescent Kinase Assay (CDK2/E1-37C). The note with it: 0.18 nM CDK2/Cyclin E1, 100 μM ATP, Histone H1, 37° C.; read-out: ADPGLO (CDK2/E1-37C): IC50. The experiment is classed as biochemical. Put shortly:
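Activated CDK2/Cyclin E1 (0.18 nM final) preincubated with compound 60 min at 37 °C, then reacted with 100 μM ATP and Histone H1 ([…]) for 90 min at 37 °C in HEPES pH 7.5 buffer. ADP-Glo luminescence normalized to % activity; IC50 from four-parameter fit.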

In experiment [2] the test system is Kuramochi cells RB-WT. In words: IncuCyte Kuramochi cell proliferation assay, RB-WT. The experiment is classed as cell-based. The note with it: 72 hours, cell count. Put shortly: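 mApple-H2B-labelled Kuramochi cells were treated with a 10-point, half-log series (top 20 µM) and imaged at 0 and 72 h. Fluorescent nuclei were counted, and the 0–72 h fold change was normalized to DMSO wells. GI50 came from dose-response fits.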

Experiment [3] concerns Kuramochi cells RB-KO. In words: IncuCyte Kuramochi cell proliferation assay, RB-KO. The experiment is classed as cell-based. The note with it: 72 hours, cell count, batch mean. As to the method: IncuCyte® assay was used to measure the effect of disclosed compounds on cell proliferation. Fluorescent microscopy images of cells were taken immediately after compound treatment and 72 hours later. Image analysis software was used to obtain cell counts as a function of compound concentration. Kuramochi cells labeled with mApple-H2B were seeded on 384-well assay-ready plates. Plates were placed in an IncuCyte® (Sartorius) and scanned at 0 and 72 hours. IncuCyte® software was used to count the number of fluorescent nuclei in each well. The fold change in cell count from 0 to 72 hours in wells treated with increasing compounds concentrations (10 pts, 1/2 log dilution, 20 µM top concentration) was normalized to DMSO control wells. The normalized cell counts were fit with dose response curves and a GI50 was calculated.

Turning to `O=C(O)Cc1c(COC[C@@H]2CN(C(=O)c3cnn(Cc4ccc(F)cc4)c3)CC23CN(C(=O)C2(C(F)(F)F)CC2)C3)cccc1C1CCC(C(F)(F)F)CC1` (stereo partly drawn) [Compound I-102, (S)-2-(2-(((6-(1-(4-fluorobenzyl)-1H-pyrazole-4-carbonyl)-2-(1-(trifluoromethyl)cyclopropane-1-carbonyl)-2,6-diazaspiro[3.4]octan-8-yl)methoxy)methyl)-6-(4-(trifluoromethyl)cyclohexyl)phenyl)acetic acid], the IC50 in experiment [1] is at most 0.5 µM; in experiment [2], 0.5 to 5 µM; in experiment [3], over 10 µM.
In the same order, the values of `CC(C)(Oc1c(COC[C@@H]2CN(C(=O)c3cnn(Cc4ccc(F)cc4)c3)CC23CN(C(=O)C2(C(F)(F)F)CC2)C3)cccc1C1CCC(C(F)(F)F)CC1)C(=O)O` (stereo partly drawn) [Compound I-108] are 0.5 to 5 µM, over 10 µM and over 10 µM.
In the same order, the values of `O=C(O)COc1c(COC[C@@H]2CN(C(=O)c3cnn(Cc4ccc(F)cc4)c3)CC23CN(C(=O)C2(C(F)(F)F)CC2)C3)cccc1C1CCC(C(F)(F)F)CC1` (stereo partly drawn) [Compound I-109, (S)-2-(2-(((6-(1-(4-fluorobenzyl)-1H-pyrazole-4-carbonyl)-2-(1-(trifluoromethyl)cyclopropane-1-carbonyl)-2,6-diazaspiro[3.4]octan-8-yl)methoxy)methyl)-6-(4-(trifluoromethyl)cyclohexyl)phenoxy)acetic acid] are at most 0.5 µM, over 10 µM and over 10 µM.
On the same counts, the results for `O=C(O)c1ccc(C2CCC(C(F)(F)F)CC2)cc1COC[C@@H]1CN(C(=O)c2cnn(Cc3ccc(F)cc3)c2)CC12CN(C(=O)C1(C(F)(F)F)CC1)C2` (stereo partly drawn) [Compound I-111] are 0.5 to 5 µM, over 10 µM and over 10 µM.
For the compound `O=C(O)c1ccccc1Cn1cc(C(=O)N2CC(COCc3cccc(C4CCC(C(F)(F)F)CC4)c3C(F)(F)F)C3(C2)CN(C(=O)C2(C(F)(F)F)CC2)C3)cn1` (stereo not drawn) [Compound I-114], the IC50 in experiment [1] was at most 0.5 µM; in experiment [2], over 10 µM; in experiment [3] it was over 10 µM.
`CC1(C)C[C@@H]1C(=O)N1CC2(CN(C(=O)c3cnn(Cc4ccc(F)cc4C(F)(F)F)c3)C[C@H]2COCc2cccc(C3CCC(F)(F)CC3)c2C(=O)O)C1` [Compound I-118, 2-(4,4-difluorocyclohexyl)-6-(((2-((S)-2,2-dimethylcyclopropane-1-carbonyl)-6-(1-(4-fluoro-2-(trifluoromethyl)benzyl)-1H-pyrazole-4-carbonyl)-2,6-diazaspiro[3.4]octan-8-yl)methoxy)methyl)benzoic acid]: the figures for the IC50 in experiment [1], in experiment [2] and in experiment [3] were at most 0.5 µM, 5 to 10 µM and over 10 µM, respectively.
On to `CC1(C)C[C@@H]1C(=O)N1CC2(CN(C(=O)c3cnn(Cc4ccc(F)cc4)c3)C[C@H]2COCc2c(F)ccc(C3CCC(F)(F)CC3)c2C(=O)O)C1` [Compound I-119, 6-(4,4-difluorocyclohexyl)-2-(((2-((S)-2,2-dimethylcyclopropane-1-carbonyl)-6-(1-(4-fluorobenzyl)-1H-pyrazole-4-carbonyl)-2,6-diazaspiro[3.4]octan-8-yl)methoxy)methyl)-3-fluorobenzoic acid], for which the figures for the IC50 in experiment [1], in experiment [2] and in experiment [3] were at most 0.5 µM, 0.5 to 5 µM and over 10 µM, respectively.
In the same order, the values of `CC(C)(C(=O)N1CC2(CN(C(=O)c3cnn(Cc4ccc(F)cc4C(F)(F)F)c3)C[C@H]2COCc2cccc(C3CCC(F)(F)CC3)c2C(=O)O)C1)C(F)(F)F` [Compound I-127, (S)-2-(4,4-difluorocyclohexyl)-6-(((6-(1-(4-fluoro-2-(trifluoromethyl)benzyl)-1H-pyrazole-4-carbonyl)-2-(3,3,3-trifluoro-2,2-dimethylpropanoyl)-2,6-diazaspiro[3.4]octan-8-yl)methoxy)methyl)benzoic acid] are at most 0.5 µM, 0.5 to 5 µM and over 10 µM.
In the same order, the values of `CC1(C)C[C@@H]1C(=O)N1CC2(CN(C(=O)c3cnn(Cc4ccc(F)cc4)c3)CC2COc2cccc(C3CCC(F)(F)CC3)c2C(=O)O)C1` (stereo partly drawn) [Compound I-128, 2-(4,4-difluorocyclohexyl)-6-((2-((S)-2,2-dimethylcyclopropane-1-carbonyl)-6-(1-(4-fluorobenzyl)-1H-pyrazole-4-carbonyl)-2,6-diazaspiro[3.4]octan-8-yl)methoxy)benzoic acid] are at most 0.5 µM, over 10 µM and over 10 µM.
In the same order, the values of `CC1(C)C[C@@H]1C(=O)N1CC2(CN(C(=O)c3cnn(Cc4ccc(F)cc4)c3)CC2COc2cccc(CC3CCC(F)(F)CC3)c2C(=O)O)C1` (stereo partly drawn) [Compound I-129] are at most 0.5 µM, over 10 µM and over 10 µM.
Regarding `CC1(C)C[C@@H]1C(=O)N1CC2(CN(C(=O)c3cnn(Cc4ccc(F)cc4)c3)CC2COc2cccc(OC3CCC(F)(F)CC3)c2C(=O)O)C1` (stereo partly drawn) [Compound I-130, 2-((4,4-difluorocyclohexyl)oxy)-6-((2-((S)-2,2-dimethylcyclopropane-1-carbonyl)-6-(1-(4-fluorobenzyl)-1H-pyrazole-4-carbonyl)-2,6-diazaspiro[3.4]octan-8-yl)methoxy)benzoic acid], the values for the IC50 in experiment [1], in experiment [2] and in experiment [3] were at most 0.5 µM, over 10 µM and over 10 µM, respectively.
As to `CC(C)(C(=O)N1CC2(CN(C(=O)c3cnn(Cc4ccc(F)cc4)c3)C[C@H]2COCc2cccc(N3CCC(C(F)(F)F)CC3)c2C(=O)O)C1)C(F)(F)F` [I′-19, (S)-2-(((6-(1-(4-fluorobenzyl)-1H-pyrazole-4-carbonyl)-2-(3,3,3-trifluoro-2,2-dimethylpropanoyl)-2,6-diazaspiro[3.4]octan-8-yl)methoxy)methyl)-6-(4-(trifluoromethyl)piperidin-1-yl)benzoic acid], the IC50 in experiment [1] is at most 0.5 µM; in experiment [2] it was 0.5 to 5 µM; in experiment [3], over 10 µM.
On the same counts, the results for `CC(C)(C(=O)N1CC2(CN(C(=O)c3cnn(Cc4ccc(F)cc4)c3)C[C@H]2COCc2c(C(F)(F)F)ccc(C3CCC(F)(F)CC3)c2C(=O)O)C1)C(F)(F)F` [I′-20] are at most 0.5 µM, 5 to 10 µM and over 10 µM.
On the same counts, the results for `CC(C)(C(=O)N1CC2(CN(C(=O)c3cnn(Cc4ccc(F)cc4)c3)C[C@H]2COCc2ccc(F)c(C3CCC(F)(F)CC3)c2C(=O)O)C1)C(F)(F)F` [I′-21] are at most 0.5 µM, over 10 µM and over 10 µM.
In the same order, the values of `CC(C)(C(=O)N1CC2(CN(C(=O)c3cnn(Cc4ccc(F)cc4)c3)C[C@H]2COCc2cccc(C3CCC(F)(F)CC3)c2C(=O)NCCN2CCOCC2)C1)C(F)(F)F` [I′-22] are at most 0.5 µM, over 10 µM and over 10 µM.
Turning to `CC(C)(C(=O)N1CC2(CN(C(=O)c3cnn(Cc4ccc(F)cc4)c3)C[C@H]2COCc2cccc(C3CCC(C(F)(F)F)CC3)c2CC(=O)O)C1)C(F)(F)F` (stereo partly drawn) [I′-23, (S)-2-(2-(((6-(1-(4-fluorobenzyl)-1H-pyrazole-4-carbonyl)-2-(3,3,3-trifluoro-2,2-dimethylpropanoyl)-2,6-diazaspiro[3.4]octan-8-yl)methoxy)methyl)-6-(4-(trifluoromethyl)cyclohexyl)phenyl)acetic acid], the IC50 in experiment [1] is at most 0.5 µM; in experiment [2], at most 0.5 µM; in experiment [3] it was over 10 µM.
With `CC(C)(C(=O)N1CC2(CN(C(=O)c3cnn(Cc4ccc(F)cc4)c3)C[C@H]2COCc2cccc(C3CCC(F)(F)CC3)c2-c2nn[nH]n2)C1)C(F)(F)F` [I′-24], the IC50 is at most 0.5 µM in experiment [1], 0.5 to 5 µM in experiment [2] and over 10 µM in experiment [3].
On the same counts, the results for `CC1(C)C[C@@H]1C(=O)N1CC2(CN(C(=O)c3cnn(Cc4ccc(F)cc4)c3)C[C@H]2COCc2cccc(C3CCC(F)(F)CC3)c2C(=O)NCCN2CCOCC2)C1` [I′-25, 2-(4,4-difluorocyclohexyl)-6-((((S)-2-((S)-2,2-dimethylcyclopropane-1-carbonyl)-6-(1-(4-fluorobenzyl)-1H-pyrazole-4-carbonyl)-2,6-diazaspiro[3.4]octan-8-yl)methoxy)methyl)-N-(2-morpholinoethyl)benzamide] are at most 0.5 µM, over 10 µM and over 10 µM.
On the same counts, the results for `CC(C)(C(=O)N1CC2(CN(C(=O)c3cnn(Cc4ccc(F)cc4)c3)C[C@H]2COCc2cccc(-c3csc(C(F)(F)F)c3)c2C(=O)O)C1)C(F)(F)F` [I′-26, (S)-2-(((6-(1-(4-fluorobenzyl)-1H-pyrazole-4-carbonyl)-2-(3,3,3-trifluoro-2,2-dimethylpropanoyl)-2,6-diazaspiro[3.4]octan-8-yl)methoxy)methyl)-6-(5-(trifluoromethyl)thiophen-3-yl)benzoic acid] are at most 0.5 µM, at most 0.5 µM and over 10 µM.
